Kd data for one compound are collected here from PMC6586795 (Nature Communications, 2019).

The experiment concerns the target T1, Drosophila melanogaster dopamine transporter (dDAT) (Drosophila melanogaster, UniProt Q7K4Y6).
T1 construct: gene DAT; Full-length wild-type dDAT with a C-terminal thrombin site and 8 histidine-tag
Nature of the experiment: [3H]nisoxetine saturation binding, scintillation proximity assay on purified dDAT.

T1 sequence (Q7K4Y6 whole entry): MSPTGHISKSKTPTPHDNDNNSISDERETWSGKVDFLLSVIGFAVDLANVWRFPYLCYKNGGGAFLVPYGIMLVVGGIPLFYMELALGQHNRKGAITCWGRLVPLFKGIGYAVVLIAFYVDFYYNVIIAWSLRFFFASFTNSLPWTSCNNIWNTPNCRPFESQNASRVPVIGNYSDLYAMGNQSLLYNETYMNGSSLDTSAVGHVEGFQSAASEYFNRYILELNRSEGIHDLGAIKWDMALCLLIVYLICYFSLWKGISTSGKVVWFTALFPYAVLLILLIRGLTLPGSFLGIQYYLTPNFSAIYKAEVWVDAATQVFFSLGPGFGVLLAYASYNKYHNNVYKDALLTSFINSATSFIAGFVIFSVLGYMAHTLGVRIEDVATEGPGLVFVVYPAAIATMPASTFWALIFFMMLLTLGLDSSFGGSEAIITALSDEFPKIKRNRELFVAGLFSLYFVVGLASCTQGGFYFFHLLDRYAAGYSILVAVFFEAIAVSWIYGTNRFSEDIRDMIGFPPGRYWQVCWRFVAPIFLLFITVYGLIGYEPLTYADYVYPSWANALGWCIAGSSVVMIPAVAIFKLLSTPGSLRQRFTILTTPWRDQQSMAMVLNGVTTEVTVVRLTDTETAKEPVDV

In the case of `CNCCC(Oc1ccccc1OC)c1ccccc1` (stereo not shown) [nisoxetine], the affinity, expressed as Kd, was 80 ± 6 nM.

As a reminder, the Kd is the constant that tells how readily two partners part at equilibrium. Low values mean higher affinity, high ones lower affinity.
